Data from the supplement of paper PMC10307832.

Tests used:
Test in all cases: relative viability (nuclei count vs DMSO), 5 days (fraction); higher = more cells survive
Crizotinib + Foretinib = compound: C[C@@H](Oc1cc(-c2cnn(C3CCNCC3)c2)cnc1N)c1c(Cl)ccc(F)c1Cl [Crizotinib] + COc1cc2c(Oc3ccc(NC(=O)C4(C(=O)Nc5ccc(F)cc5)CC4)cc3F)ccnc2cc1OCCCN1CCOCC1 [Foretinib] (partner 0.25 µM)
In short: (§1)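 Lung cancer cell lines, seeded in 1536-well plates, were treated the following day by pin tool with a single drug or with five library-drug doses (not always all listed) in √10 steps on top of a fixed anchor-drug dose. Cells were fixed and nuclei stained in one step after 5 days, and nuclei were counted. Relative viability is the nuclei count for treated wells divided by that for vehicle wells, reported as medians of duplicate plates.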

Crizotinib + Phenformin = compound: C[C@@H](Oc1cc(-c2cnn(C3CCNCC3)c2)cnc1N)c1c(Cl)ccc(F)c1Cl [Crizotinib] + N=C(N)NC(=N)NCCc1ccccc1 [Phenformin] (partner 250 µM)
In short: as §1

Crizotinib + Decitabine = compound: C[C@@H](Oc1cc(-c2cnn(C3CCNCC3)c2)cnc1N)c1c(Cl)ccc(F)c1Cl [Crizotinib] + Nc1ncn([C@H]2C[C@H](O)[C@@H](CO)O2)c(=O)n1 [Decitabine] (partner 2 µM)
In short: as §1

Crizotinib + Olaparib = compound: C[C@@H](Oc1cc(-c2cnn(C3CCNCC3)c2)cnc1N)c1c(Cl)ccc(F)c1Cl [Crizotinib] + O=C(c1cc(Cc2n[nH]c(=O)c3ccccc23)ccc1F)N1CCN(C(=O)C2CC2)CC1 [Olaparib] (partner 8 µM)
In short: as §1

NCI-H1755
relative viability (Crizotinib + Foretinib; first compound 0.01 µM): 0.835
relative viability (Crizotinib + Foretinib; first compound 0.03162 µM): 0.923
relative viability (Crizotinib + Foretinib; first compound 0.1 µM): 0.887
relative viability (Crizotinib + Foretinib; first compound 0.3162 µM): 0.877
relative viability (Crizotinib + Foretinib; first compound 1 µM): 0.891
relative viability (Crizotinib + Phenformin; first compound 0.01 µM): 0.593
relative viability (Crizotinib + Phenformin; first compound 0.03162 µM): 0.681
relative viability (Crizotinib + Phenformin; first compound 0.1 µM): 0.643
relative viability (Crizotinib + Phenformin; first compound 0.3162 µM): 0.527
relative viability (Crizotinib + Phenformin; first compound 1 µM): 0.569
relative viability (Crizotinib + Decitabine; first compound 0.01 µM): 0.639
relative viability (Crizotinib + Decitabine; first compound 0.03162 µM): 0.713
relative viability (Crizotinib + Decitabine; first compound 0.1 µM): 0.755
relative viability (Crizotinib + Decitabine; first compound 0.3162 µM): 0.694
relative viability (Crizotinib + Decitabine; first compound 1 µM): 0.661
relative viability (Crizotinib + Olaparib; first compound 0.01 µM): 0.779
relative viability (Crizotinib + Olaparib; first compound 0.03162 µM): 0.867
relative viability (Crizotinib + Olaparib; first compound 0.1 µM): 0.854
relative viability (Crizotinib + Olaparib; first compound 0.3162 µM): 0.923
relative viability (Crizotinib + Olaparib; first compound 1 µM): 0.827

NCI-H1915
relative viability (Crizotinib + Foretinib; first compound 0.01 µM): 1
relative viability (Crizotinib + Foretinib; first compound 0.03162 µM): 1.1
relative viability (Crizotinib + Foretinib; first compound 0.1 µM): 1.07
relative viability (Crizotinib + Foretinib; first compound 1 µM): 1.08
relative viability (Crizotinib + Phenformin; first compound 0.01 µM): 0.382
relative viability (Crizotinib + Phenformin; first compound 0.03162 µM): 0.377
relative viability (Crizotinib + Phenformin; first compound 0.1 µM): 0.367
relative viability (Crizotinib + Phenformin; first compound 1 µM): 0.359
relative viability (Crizotinib + Decitabine; first compound 0.01 µM): 0.229
relative viability (Crizotinib + Decitabine; first compound 0.03162 µM): 0.256
relative viability (Crizotinib + Decitabine; first compound 0.1 µM): 0.261
relative viability (Crizotinib + Decitabine; first compound 0.3162 µM): 0.258
relative viability (Crizotinib + Decitabine; first compound 1 µM): 0.26
relative viability (Crizotinib + Olaparib; first compound 0.01 µM): 0.228
relative viability (Crizotinib + Olaparib; first compound 0.03162 µM): 0.257
relative viability (Crizotinib + Olaparib; first compound 0.1 µM): 0.259
relative viability (Crizotinib + Olaparib; first compound 0.3162 µM): 0.222
relative viability (Crizotinib + Olaparib; first compound 1 µM): 0.26

NCI-H1944
relative viability (Crizotinib + Foretinib; first compound 0.01 µM): 0.823
relative viability (Crizotinib + Foretinib; first compound 0.03162 µM): 0.877
relative viability (Crizotinib + Foretinib; first compound 0.1 µM): 0.847
relative viability (Crizotinib + Foretinib; first compound 0.3162 µM): 0.884
relative viability (Crizotinib + Foretinib; first compound 1 µM): 0.862
relative viability (Crizotinib + Phenformin; first compound 0.01 µM): 0.19
relative viability (Crizotinib + Phenformin; first compound 0.03162 µM): 0.194
relative viability (Crizotinib + Phenformin; first compound 0.1 µM): 0.189
relative viability (Crizotinib + Phenformin; first compound 0.3162 µM): 0.195
relative viability (Crizotinib + Phenformin; first compound 1 µM): 0.198
relative viability (Crizotinib + Decitabine; first compound 0.01 µM): 0.387
relative viability (Crizotinib + Decitabine; first compound 0.03162 µM): 0.412
relative viability (Crizotinib + Decitabine; first compound 0.1 µM): 0.463
relative viability (Crizotinib + Decitabine; first compound 0.3162 µM): 0.409
relative viability (Crizotinib + Decitabine; first compound 1 µM): 0.45
relative viability (Crizotinib + Olaparib; first compound 0.01 µM): 0.414
relative viability (Crizotinib + Olaparib; first compound 0.03162 µM): 0.423
relative viability (Crizotinib + Olaparib; first compound 0.1 µM): 0.378
relative viability (Crizotinib + Olaparib; first compound 0.3162 µM): 0.424
relative viability (Crizotinib + Olaparib; first compound 1 µM): 0.461

NCI-H1975
relative viability (Crizotinib + Foretinib; first compound 0.01 µM): 0.941
relative viability (Crizotinib + Foretinib; first compound 0.03162 µM): 1.03
relative viability (Crizotinib + Foretinib; first compound 0.1 µM): 0.902
relative viability (Crizotinib + Foretinib; first compound 0.3162 µM): 0.962
relative viability (Crizotinib + Foretinib; first compound 1 µM): 0.975
relative viability (Crizotinib + Phenformin; first compound 0.01 µM): 0.376
relative viability (Crizotinib + Phenformin; first compound 0.03162 µM): 0.419
relative viability (Crizotinib + Phenformin; first compound 0.1 µM): 0.4
relative viability (Crizotinib + Phenformin; first compound 0.3162 µM): 0.41
relative viability (Crizotinib + Phenformin; first compound 1 µM): 0.399
relative viability (Crizotinib + Decitabine; first compound 0.01 µM): 0.404
relative viability (Crizotinib + Decitabine; first compound 0.03162 µM): 0.322
relative viability (Crizotinib + Decitabine; first compound 0.1 µM): 0.466
relative viability (Crizotinib + Decitabine; first compound 0.3162 µM): 0.31
relative viability (Crizotinib + Decitabine; first compound 1 µM): 0.39
relative viability (Crizotinib + Olaparib; first compound 0.01 µM): 0.806
relative viability (Crizotinib + Olaparib; first compound 0.03162 µM): 0.743
relative viability (Crizotinib + Olaparib; first compound 0.1 µM): 0.794
relative viability (Crizotinib + Olaparib; first compound 0.3162 µM): 0.749
relative viability (Crizotinib + Olaparib; first compound 1 µM): 0.774

NCI-H1993
relative viability (Crizotinib + Foretinib; first compound 0.01 µM): 0.848
relative viability (Crizotinib + Foretinib; first compound 0.03162 µM): 0.9
relative viability (Crizotinib + Foretinib; first compound 0.1 µM): 0.741
relative viability (Crizotinib + Foretinib; first compound 0.3162 µM): 0.827
relative viability (Crizotinib + Foretinib; first compound 1 µM): 0.82
relative viability (Crizotinib + Phenformin; first compound 0.01 µM): 0.493
relative viability (Crizotinib + Phenformin; first compound 0.03162 µM): 0.51
relative viability (Crizotinib + Phenformin; first compound 0.1 µM): 0.534
relative viability (Crizotinib + Phenformin; first compound 0.3162 µM): 0.507
relative viability (Crizotinib + Phenformin; first compound 1 µM): 0.509
relative viability (Crizotinib + Decitabine; first compound 0.01 µM): 0.515
relative viability (Crizotinib + Decitabine; first compound 0.03162 µM): 0.525
relative viability (Crizotinib + Decitabine; first compound 0.1 µM): 0.608
relative viability (Crizotinib + Decitabine; first compound 0.3162 µM): 0.606
relative viability (Crizotinib + Decitabine; first compound 1 µM): 0.602
relative viability (Crizotinib + Olaparib; first compound 0.01 µM): 0.919
relative viability (Crizotinib + Olaparib; first compound 0.03162 µM): 0.948
relative viability (Crizotinib + Olaparib; first compound 0.3162 µM): 0.924
relative viability (Crizotinib + Olaparib; first compound 1 µM): 0.9

NCI-H2009
relative viability (Crizotinib + Foretinib; first compound 0.01 µM): 1.21
relative viability (Crizotinib + Foretinib; first compound 0.03162 µM): 1.17
relative viability (Crizotinib + Foretinib; first compound 0.1 µM): 1.13
relative viability (Crizotinib + Foretinib; first compound 0.3162 µM): 1.19
relative viability (Crizotinib + Foretinib; first compound 1 µM): 1.23
relative viability (Crizotinib + Phenformin; first compound 0.01 µM): 0.479
relative viability (Crizotinib + Phenformin; first compound 0.03162 µM): 0.492
relative viability (Crizotinib + Phenformin; first compound 0.1 µM): 0.513
relative viability (Crizotinib + Phenformin; first compound 0.3162 µM): 0.426
relative viability (Crizotinib + Phenformin; first compound 1 µM): 0.458
relative viability (Crizotinib + Decitabine; first compound 0.01 µM): 0.382
relative viability (Crizotinib + Decitabine; first compound 0.03162 µM): 0.372
relative viability (Crizotinib + Decitabine; first compound 0.1 µM): 0.348
relative viability (Crizotinib + Decitabine; first compound 0.3162 µM): 0.387
relative viability (Crizotinib + Decitabine; first compound 1 µM): 0.392
relative viability (Crizotinib + Olaparib; first compound 0.01 µM): 0.666
relative viability (Crizotinib + Olaparib; first compound 0.03162 µM): 0.712
relative viability (Crizotinib + Olaparib; first compound 0.1 µM): 0.697
relative viability (Crizotinib + Olaparib; first compound 0.3162 µM): 0.685
relative viability (Crizotinib + Olaparib; first compound 1 µM): 0.741

NCI-H2023
relative viability (Crizotinib + Foretinib; first compound 0.01 µM): 0.745
relative viability (Crizotinib + Foretinib; first compound 0.03162 µM): 0.799
relative viability (Crizotinib + Foretinib; first compound 0.1 µM): 0.787
relative viability (Crizotinib + Foretinib; first compound 0.3162 µM): 0.848
relative viability (Crizotinib + Foretinib; first compound 1 µM): 0.939
relative viability (Crizotinib + Phenformin; first compound 0.01 µM): 0.397
relative viability (Crizotinib + Phenformin; first compound 0.03162 µM): 0.406
relative viability (Crizotinib + Phenformin; first compound 0.1 µM): 0.409
relative viability (Crizotinib + Phenformin; first compound 0.3162 µM): 0.304
relative viability (Crizotinib + Phenformin; first compound 1 µM): 0.322
relative viability (Crizotinib + Decitabine; first compound 0.01 µM): 0.186
relative viability (Crizotinib + Decitabine; first compound 0.03162 µM): 0.236
relative viability (Crizotinib + Decitabine; first compound 0.1 µM): 0.272
relative viability (Crizotinib + Decitabine; first compound 0.3162 µM): 0.202
relative viability (Crizotinib + Decitabine; first compound 1 µM): 0.255
relative viability (Crizotinib + Olaparib; first compound 0.01 µM): 0.449
relative viability (Crizotinib + Olaparib; first compound 0.03162 µM): 0.498
relative viability (Crizotinib + Olaparib; first compound 0.1 µM): 0.521
relative viability (Crizotinib + Olaparib; first compound 0.3162 µM): 0.408
relative viability (Crizotinib + Olaparib; first compound 1 µM): 0.451

NCI-H2085
relative viability (Crizotinib + Foretinib; first compound 0.01 µM): 0.822
relative viability (Crizotinib + Foretinib; first compound 0.03162 µM): 0.809
relative viability (Crizotinib + Foretinib; first compound 0.1 µM): 0.906
relative viability (Crizotinib + Foretinib; first compound 1 µM): 0.987
relative viability (Crizotinib + Phenformin; first compound 0.01 µM): 0.626
relative viability (Crizotinib + Phenformin; first compound 0.03162 µM): 0.807
relative viability (Crizotinib + Phenformin; first compound 0.1 µM): 0.703
relative viability (Crizotinib + Phenformin; first compound 1 µM): 0.872
relative viability (Crizotinib + Decitabine; first compound 0.01 µM): 0.565
relative viability (Crizotinib + Decitabine; first compound 0.03162 µM): 0.518
relative viability (Crizotinib + Decitabine; first compound 0.1 µM): 0.554
relative viability (Crizotinib + Decitabine; first compound 0.3162 µM): 0.54
relative viability (Crizotinib + Decitabine; first compound 1 µM): 0.595
relative viability (Crizotinib + Olaparib; first compound 0.01 µM): 0.737
relative viability (Crizotinib + Olaparib; first compound 0.03162 µM): 0.74
relative viability (Crizotinib + Olaparib; first compound 0.1 µM): 0.755
relative viability (Crizotinib + Olaparib; first compound 0.3162 µM): 0.752
relative viability (Crizotinib + Olaparib; first compound 1 µM): 0.823

NCI-H2087
relative viability (Crizotinib + Foretinib; first compound 0.01 µM): 1.12
relative viability (Crizotinib + Foretinib; first compound 0.03162 µM): 1.12
relative viability (Crizotinib + Foretinib; first compound 0.1 µM): 1.03
relative viability (Crizotinib + Foretinib; first compound 1 µM): 1.24
relative viability (Crizotinib + Phenformin; first compound 0.01 µM): 0.36
relative viability (Crizotinib + Phenformin; first compound 0.03162 µM): 0.502
relative viability (Crizotinib + Phenformin; first compound 0.1 µM): 0.508
relative viability (Crizotinib + Phenformin; first compound 1 µM): 0.462
relative viability (Crizotinib + Decitabine; first compound 0.01 µM): 0.259
relative viability (Crizotinib + Decitabine; first compound 0.03162 µM): 0.247
relative viability (Crizotinib + Decitabine; first compound 0.1 µM): 0.252
relative viability (Crizotinib + Decitabine; first compound 0.3162 µM): 0.194
relative viability (Crizotinib + Decitabine; first compound 1 µM): 0.274
relative viability (Crizotinib + Olaparib; first compound 0.01 µM): 0.614
relative viability (Crizotinib + Olaparib; first compound 0.03162 µM): 0.59
relative viability (Crizotinib + Olaparib; first compound 0.1 µM): 0.595
relative viability (Crizotinib + Olaparib; first compound 0.3162 µM): 0.397
relative viability (Crizotinib + Olaparib; first compound 1 µM): 0.716
